US11186548B2 (priority 2017, dated 2021)
Entries after “also recorded” stand apart in the source; their conditions may differ. Like-named read-outs stand apart in the source and are kept apart here.

Assays:
human AChE = human AChE (Homo sapiens, UniProt P22303); format: biochemical
[1] = male, guinea pig, in vivo
[2] = guinea pig, in vivo; for percentage of the administered dose in the brain / LogBB / brain concentration / plasma concentration: male; for LogBB / brain concentration / plasma concentration: iv
in vivo [3] = settings: male, guinea pig, iv
in vivo [4] = settings: male, guinea pig
CYP3A4 = CYP3A4 (Homo sapiens, UniProt P08684); experiment: biochemical
[5] = Microsomal stability assay; settings: microsomes
[6] = Human plasma stability assay
hERG channel = hERG channel (Homo sapiens, UniProt Q12809); experiment: hERG channel patch clamp assay
MDR1 (P-gp) = MDR1 (P-gp) (Homo sapiens, UniProt P08183); experiment: MDR1-MDCK efflux assay (net flux ratio); settings: 37° C., three hours
[7] = Parallel Artificial Membrane Permeability Assay (PAMPA); settings: about 100 μM, five hours, 25° C.
CYP2C19 = CYP2C19 (Homo sapiens, UniProt P33261); experiment: Cytochrome P450 inhibition with fluorescent probe substrate
Chain of CYP2C19 (P33261 whole entry): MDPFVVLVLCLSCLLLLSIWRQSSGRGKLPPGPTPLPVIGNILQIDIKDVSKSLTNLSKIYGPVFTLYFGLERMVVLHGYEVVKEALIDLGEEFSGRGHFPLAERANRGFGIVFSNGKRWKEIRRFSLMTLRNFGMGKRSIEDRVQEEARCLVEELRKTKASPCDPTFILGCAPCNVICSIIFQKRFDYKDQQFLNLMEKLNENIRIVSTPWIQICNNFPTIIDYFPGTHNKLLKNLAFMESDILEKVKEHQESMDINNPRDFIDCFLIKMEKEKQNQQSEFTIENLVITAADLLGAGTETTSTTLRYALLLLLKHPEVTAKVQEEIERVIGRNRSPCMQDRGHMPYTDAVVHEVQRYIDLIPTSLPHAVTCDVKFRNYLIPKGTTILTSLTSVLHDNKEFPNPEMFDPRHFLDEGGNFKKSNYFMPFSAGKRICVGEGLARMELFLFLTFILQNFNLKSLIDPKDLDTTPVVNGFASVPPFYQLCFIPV

Chain of MDR1 (P-gp) (P08183 whole entry): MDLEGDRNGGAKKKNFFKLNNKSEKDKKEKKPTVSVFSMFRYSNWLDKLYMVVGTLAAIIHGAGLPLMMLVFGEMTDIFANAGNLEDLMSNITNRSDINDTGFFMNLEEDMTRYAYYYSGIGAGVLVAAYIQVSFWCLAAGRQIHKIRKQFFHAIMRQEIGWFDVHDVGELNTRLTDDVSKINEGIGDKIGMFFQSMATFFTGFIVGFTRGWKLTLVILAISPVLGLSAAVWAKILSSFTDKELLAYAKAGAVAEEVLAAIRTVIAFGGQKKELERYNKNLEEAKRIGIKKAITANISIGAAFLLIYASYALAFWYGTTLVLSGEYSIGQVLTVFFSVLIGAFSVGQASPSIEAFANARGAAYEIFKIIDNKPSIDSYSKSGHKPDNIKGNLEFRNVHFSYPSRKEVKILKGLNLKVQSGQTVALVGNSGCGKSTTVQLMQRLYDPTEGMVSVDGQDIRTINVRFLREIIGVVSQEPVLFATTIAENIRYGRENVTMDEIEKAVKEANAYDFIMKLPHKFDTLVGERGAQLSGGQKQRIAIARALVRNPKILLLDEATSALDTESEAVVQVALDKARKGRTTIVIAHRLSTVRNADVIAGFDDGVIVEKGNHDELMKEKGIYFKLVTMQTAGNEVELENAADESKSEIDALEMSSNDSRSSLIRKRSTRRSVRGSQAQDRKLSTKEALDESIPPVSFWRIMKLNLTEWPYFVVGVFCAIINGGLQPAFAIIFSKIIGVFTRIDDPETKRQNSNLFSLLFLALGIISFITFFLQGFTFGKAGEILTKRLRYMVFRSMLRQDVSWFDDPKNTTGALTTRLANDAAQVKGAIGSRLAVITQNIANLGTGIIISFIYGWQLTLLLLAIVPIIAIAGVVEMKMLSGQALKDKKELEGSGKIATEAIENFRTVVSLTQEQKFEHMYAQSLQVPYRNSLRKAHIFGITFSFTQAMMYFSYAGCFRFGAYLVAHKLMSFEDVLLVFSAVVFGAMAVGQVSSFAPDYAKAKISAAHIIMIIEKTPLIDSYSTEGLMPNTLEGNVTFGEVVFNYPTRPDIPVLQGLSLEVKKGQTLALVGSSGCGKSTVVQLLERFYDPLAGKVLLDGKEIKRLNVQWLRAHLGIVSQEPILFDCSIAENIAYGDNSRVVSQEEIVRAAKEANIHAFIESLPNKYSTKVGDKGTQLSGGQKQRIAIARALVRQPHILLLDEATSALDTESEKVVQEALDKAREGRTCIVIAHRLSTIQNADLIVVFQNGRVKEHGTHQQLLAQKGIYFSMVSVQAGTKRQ
Chain of human AChE (P22303-2 with tags, fused parts or gaps limits assumed): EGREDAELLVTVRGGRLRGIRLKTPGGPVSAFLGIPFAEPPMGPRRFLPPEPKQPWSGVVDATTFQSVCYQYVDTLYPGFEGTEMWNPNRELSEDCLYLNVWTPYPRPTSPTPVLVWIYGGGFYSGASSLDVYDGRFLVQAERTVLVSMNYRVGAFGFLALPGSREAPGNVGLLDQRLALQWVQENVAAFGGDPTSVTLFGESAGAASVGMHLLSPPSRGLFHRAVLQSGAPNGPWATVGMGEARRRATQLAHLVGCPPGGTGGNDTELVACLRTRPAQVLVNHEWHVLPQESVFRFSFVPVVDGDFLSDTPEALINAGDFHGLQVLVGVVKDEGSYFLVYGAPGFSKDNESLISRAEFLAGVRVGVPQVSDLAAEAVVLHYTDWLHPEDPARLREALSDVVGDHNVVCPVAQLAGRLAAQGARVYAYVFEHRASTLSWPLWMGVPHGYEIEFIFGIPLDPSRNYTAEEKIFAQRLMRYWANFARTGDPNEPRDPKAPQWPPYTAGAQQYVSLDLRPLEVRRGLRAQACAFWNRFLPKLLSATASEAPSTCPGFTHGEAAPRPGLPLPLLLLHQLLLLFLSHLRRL
Chain of CYP3A4 (P08684 whole entry): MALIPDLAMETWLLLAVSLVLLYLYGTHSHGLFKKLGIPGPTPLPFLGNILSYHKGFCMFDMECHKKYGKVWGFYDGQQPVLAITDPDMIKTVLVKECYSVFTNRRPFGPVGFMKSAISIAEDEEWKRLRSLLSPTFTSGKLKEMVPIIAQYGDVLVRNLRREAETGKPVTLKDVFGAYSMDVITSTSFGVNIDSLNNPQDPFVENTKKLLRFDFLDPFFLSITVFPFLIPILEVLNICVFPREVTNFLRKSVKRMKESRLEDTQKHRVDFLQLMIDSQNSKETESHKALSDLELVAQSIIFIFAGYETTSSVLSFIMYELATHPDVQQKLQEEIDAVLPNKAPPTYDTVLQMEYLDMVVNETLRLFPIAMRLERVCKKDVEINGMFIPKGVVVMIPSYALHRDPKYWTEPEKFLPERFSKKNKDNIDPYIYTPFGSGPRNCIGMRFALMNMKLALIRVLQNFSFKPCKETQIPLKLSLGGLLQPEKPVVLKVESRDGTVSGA
Chain of hERG channel (Q12809 whole entry): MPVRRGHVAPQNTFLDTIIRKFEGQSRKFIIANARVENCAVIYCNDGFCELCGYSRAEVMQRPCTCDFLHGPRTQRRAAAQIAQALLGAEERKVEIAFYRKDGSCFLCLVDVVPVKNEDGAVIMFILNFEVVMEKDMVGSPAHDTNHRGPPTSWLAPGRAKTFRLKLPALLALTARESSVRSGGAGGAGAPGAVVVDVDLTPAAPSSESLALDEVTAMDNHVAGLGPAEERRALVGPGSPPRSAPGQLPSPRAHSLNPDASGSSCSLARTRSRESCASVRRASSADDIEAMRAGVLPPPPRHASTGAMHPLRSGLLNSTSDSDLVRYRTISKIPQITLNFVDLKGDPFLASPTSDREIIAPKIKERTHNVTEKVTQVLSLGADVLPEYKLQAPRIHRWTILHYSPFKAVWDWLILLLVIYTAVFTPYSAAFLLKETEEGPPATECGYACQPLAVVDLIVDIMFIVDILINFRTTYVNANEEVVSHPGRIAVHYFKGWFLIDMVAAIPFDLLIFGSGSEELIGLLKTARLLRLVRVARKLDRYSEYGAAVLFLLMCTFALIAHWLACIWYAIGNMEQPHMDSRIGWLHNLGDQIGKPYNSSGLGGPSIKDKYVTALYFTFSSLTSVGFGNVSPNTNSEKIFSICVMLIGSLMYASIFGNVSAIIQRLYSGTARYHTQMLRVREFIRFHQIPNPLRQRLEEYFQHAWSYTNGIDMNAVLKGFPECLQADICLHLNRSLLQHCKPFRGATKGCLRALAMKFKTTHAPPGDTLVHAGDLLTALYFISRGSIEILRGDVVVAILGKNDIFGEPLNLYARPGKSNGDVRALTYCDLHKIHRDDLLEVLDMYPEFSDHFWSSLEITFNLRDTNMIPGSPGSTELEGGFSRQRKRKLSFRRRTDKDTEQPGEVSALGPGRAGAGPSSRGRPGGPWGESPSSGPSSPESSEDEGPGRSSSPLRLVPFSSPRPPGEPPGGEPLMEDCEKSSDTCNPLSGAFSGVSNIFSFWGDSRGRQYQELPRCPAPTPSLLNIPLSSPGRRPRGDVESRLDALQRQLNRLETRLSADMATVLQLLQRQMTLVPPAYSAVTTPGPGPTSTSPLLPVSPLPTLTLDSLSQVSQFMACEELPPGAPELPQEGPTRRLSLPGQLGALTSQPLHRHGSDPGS

Structure (SMILES): C[C@@H](CN1CCCc2ccccc2C1)NC(=O)/C=N/O [LLNL-02]
- fraction of AChE reactivated at 30 minutes, methylated versus des-methyl analog (human AChE): significantly lower reactivation relative to the des-methyl counterpart
- reactivation of adducted AChE relative to the 2-PAM standard of care (human AChE): approximately 40%
- increase in mean AUC0-t [1]: 2.5 fold
- AUC0-t ([1]; iv, 10 mg/kg): 28.48 µg·h/mL
- T½ elim. ([1]; iv, 10 mg/kg): 10.11 h
- Vd (area) ([1]; iv, 10 mg/kg): 6322.68 mL/kg
- time of Cmax in the brain [2]: 5 min
- percentage of the administered dose in the brain [2]: 0.3-0.7%
- percentage of the administered dose in the brain ([2]; 1 mg/kg): 0.3%
- percentage of the administered dose in the brain ([2]; 5 mg/kg): 0.3%
- percentage of the administered dose in the brain ([2]; 20 mg/kg): 0.7%
- LogBB ([2]; 1 mg/kg): −0.879
- brain concentration ([2]; 1 mg/kg): 0.191 µg/g
- plasma concentration ([2]; 1 mg/kg): 1.443 µg/g
- LogBB ([2]; 5 mg/kg): −0.649
- brain concentration ([2]; 5 mg/kg): 1.421 µg/g
- plasma concentration ([2]; 5 mg/kg): 6.352 µg/g
- LogBB ([2]; 10 mg/kg): −0.311
- brain concentration ([2]; 10 mg/kg): 5.269 µg/g
- plasma concentration ([2]; 10 mg/kg): 10.790 µg/g
- LogBB ([2]; 20 mg/kg): −0.276
- brain concentration ([2]; 20 mg/kg): 10.048 µg/g
- plasma concentration ([2]; 20 mg/kg): 19.009 µg/g
- half-life (in vivo [3]; 1 mg/kg, T½ dist.): 23.4 min
- half-life (in vivo [3]; 5 mg/kg, T½ dist.): 24 min
- AUC(0-inf) (in vivo [3]; 10 mg/kg): 73400 ng·h/mL
- AUC0-t (in vivo [3]; 10 mg/kg, AUC0-t): 28400 ng·h/mL
- half-life (in vivo [3]; 10 mg/kg, T½ dist.): 15 min
- half-life (in vivo [3]; 10 mg/kg, T½ elim.): 606 min
- Vd (in vivo [3]; 10 mg/kg, Vd (area)): 6.32 L/kg
- half-life (in vivo [3]; 20 mg/kg, T½ dist.): 23.4 min
- Vd (in vivo [3]; 20 mg/kg, apparent volume of distribution (Vd)): 3.75 to 6.32 L/kg
- half-life (in vivo [3]; 20 mg/kg, mean apparent distribution half-life (t1/2α)): 15 to 24 min
- half-life (in vivo [3]; 20 mg/kg, terminal half-life (t1/2 β)): 606 to 1130 min
- clearance (in vivo [3]; 20 mg/kg, total clearance from plasma (CL)): 2.27 to 5.19 mL/min/kg
- Cmax (in vivo [4]): 1420 to 10000 ng/g
- IC50 (CYP3A4): > 10 µM
- half-life [5]: > 60 min
- microsomal CLint [5]: < 23 µL/min/mg
- human plasma stability (percent remaining after 1 hour) ([6]; human plasma, 1 hour at 37° C.): over 90%
- degradation in human plasma ([6]; one hour): < 10%
- concentration not toxic to the hERG channel (hERG channel): > 10 µM
- MDR1 efflux substrate status from net flux ratio (MDR1 (P-gp)): may be a moderate efflux substrate; also recorded: moderate efflux substate
- PAMPA permeability [7]: high permeability through the BBB; also recorded: high permeability comparable to that of the highly permeable positive control compound, diazepam; also recorded: elevated permeability relative to other selected compounds; also recorded: superior permeation relative to LLNL-03
- IC50 (CYP2C19): > 10 µM
